pIC50: −log10 of the molar value. Where two headings read alike, the source gives them in different places.
Tests used:
[1] = in vitro; conditions: human
Procedure: HepG2 cell viability was assessed using the Cell Proliferation kit with trypan blue exclusion. […] After incubation, a 1.5-mg/mL Cell Proliferation kit solution diluted in complete MEM medium was added to each well, followed by 1-hour dark incubation at 25°C. After aspiration of media and inhibitors, the plates were dried in a hood for 15 minutes, and acidified isopropyl alcohol was added to dissolve formazan dye crystals. The plates were then rotated for 15–30 minutes, and absorbance was determined using a Perkin Elmer Ensight plate reader.

[2] = tested on: recombinant P. berghei GST; assay: GST inhibition assay (CDNB); type: biochemical, Plasmodium berghei; conditions: 6-point 1–50 µM
Procedure: Enzymatic activities of recombinant GSTs were determined spectrophotometrically using the chromogenic substrate 1-chloro-2,4-dinitrobenzene (CDNB). Recombinant GST (0.35 mg/mL) was mixed with 1 mM CDNB in 100 mM HEPES. Stock solutions (10 mM) of the CB compounds and hemin were prepared in 100% dimethyl sulfoxide (DMSO) and then diluted at 0.5% DMSO ([14]). Each inhibitor has six concentrations ranging from 1 to 50 µM. The reaction was initiated with 1 mM glutathione (GSH) after 15 minutes. Absorbance change at 340 nm was measured for 1 hour. The slope was converted to micromole per minute using Beer’s equation and the extinction coefficient for the product S-(2,4-dinitrophenyl)glutathione (ε340 nm = 9.6 mM^–1 cm^–1) ([14]). The assay was validated using human placenta GST (#G8642) as a positive control.

[3] = tested on: P. cynomolgi hypnozoites and hepatic schizonts; assay: P. cynomolgi liver-stage inhibition assay; type: cell-based, Plasmodium cynomolgi; conditions: for pIC50: Plasmodium cynomolgi
Procedure: (§1) Primary primate hepatocytes were seeded in 384-well plates and used within 2–4 days ([56]). P. cynomolgi B strain parasites were inoculated and developed into hypnozoites and schizonts. CB compounds were tested in 8-point, threefold serial dilutions (100 µM to […]) for both prophylactic (4 days starting with sporozoite addition) and radical cure (4 days starting day 4 post-inoculation) modalities ([56][–][60]). The Operetta CLS imaging system and Harmony Software 4.9 (Perkin Elmer, Waltham, MA, USA) analyzed the plates, and the percentage of inhibition (PI) was calculated in Python using equation (1), where parasitic quantities (hypnozoite and schizont counts) were normalized to the negative control ([57]). Each plate included negative (DMSO) and positive (KDU691, maduramicin, tafenoquine) controls ([58]). IC50 values were determined using an 8-point, threefold dilution format and a Python-adapted grid algorithm for fitting PI to a four-parameter logistic function ([61]).
PI = 100 ∗(1−(xy/Meanneg))

[4] = tested on: primary primate hepatocytes; assay: hepatocyte toxicity in the P. cynomolgi liver-stage assay; type: cell-based
Procedure: as §1

[5] = tested on: P. berghei ookinete development (Ookluc parasites); assay: P. berghei ookinete luciferase inhibition assay; type: cell-based, Plasmodium berghei; conditions: for pIC50: read-out: IC50 (ookinete development)
Procedure: Mice were pretreated with phenylhydrazine [6 mg/mL, intraperitoneal injection (IP)] 3 days before intravenous injection (IV) infection with P. berghei Ookluc parasites ([19], [62]). Once parasitemia exceeded 15%, the mice received PYR (1 mg/mL, IP) ([19], [62]). Twenty-four hours after PYR treatment, infected mice were assessed for at least 10 exflagellations before blood was collected by heart puncture ([19], [62]). Infected blood (1:20 dilution) was incubated with 8-point serial dilutions (2.5–75 µM) of CB compounds for 24 hours at 19°C with gentle shaking ([62], [64]). Relative luminescence units (RLU) of mature ookinetes were measured using the Promega Nano-Glo Luciferase Assay System Kit and a SpectraMax M3 Microplate Reader (Molecular Devices, San Jose, CA, USA) after 3 minutes. Giemsa blood smears confirmed ookinetes.

[6] = tested on: P. berghei blood-stage parasites; assay: P. berghei blood-stage isobolograms; type: cell-based, Plasmodium berghei
Procedure: Antimalarial activity and IC50 values of CB-61 and five antimalarial drugs were assessed using the previously described in vitro drug luminescence assay ([14], [68]). Blood-stage isobolograms were performed to confirm synergistic combinations between CB-61 and the five drugs, following established protocols ([69]). Thirty-two-fold IC50 concentrations were used to obtain six concentration ranges for each drug combination, and then they were serially diluted five times ([67]). IC50 scores for each drug alone were determined, and FIC50 values (FIC50 = […]) were calculated and plotted ([70], [71]). The Promega Luciferase Assay System Kit was used to measure mature schizonts’ RLUs, and Giemsa blood smears confirmed the presence of schizonts ([14]).

[7] = prophylactic drug treatment mode, read-out: Hypnozoite IC50
[8] = prophylactic drug treatment mode, read-out: Schizont IC50
[9] = prophylactic drug treatment mode, read-out: Total parasite IC50
[10] = Plasmodium berghei, 24 h, 24 hours at 19°C, luminescence

With O=C(NN=Cc1ccccc1O)c1cc(-c2ccccc2)nc2ccccc12 [CB-53] the IC50 at 48 h ([1]; HepG2 cells) was > 20 µM, the GST inhibition [2] was “did not inhibit” and the pIC50 [3, 7] was < 5.00. The pIC50 [3, 8] was < 5.00, the pIC50 [3, 9] was < 5.00 and the Toxicity [4] was >10 µM. For the same compound, the pIC50 [5, 10] was 4.83.
In the case of O=C(N/N=C/c1c(O)ccc2ccccc12)c1cc([N+](=O)[O-])cc([N+](=O)[O-])c1 [CB-61], the IC50 at 48 h [1] was > 20 µM, the GST inhibition [2] was “did not inhibit” and the pIC50 ([3]; read-out: Hypnozoite IC50) was < 5.00. For the same compound, the pIC50 ([3]; read-out: Schizont IC50) was < 5.00, the pIC50 ([3]; read-out: Total parasite IC50) was < 5.00 and the Toxicity [4] was >10 µM. For the same compound, the “Mean ΣFIC50” value ([6]; combination with ATQ) was 1.13, the “Mean ΣFIC50” value ([6]; combination with CLIND) was 0.82 and the “Mean ΣFIC50” value ([6]; combination with CQ (negative control)) was 1.15. For the same compound, the “Mean ΣFIC50” value ([6]; combination with DHA) was 1.44, the “Mean ΣFIC50” value ([6]; combination with HALO) was 0.78 and the “Mean ΣFIC50” value ([6]; combination with LUM) was 1.20. The pIC50 ([5]; Plasmodium berghei, 24 h) was 4.53.
In the case of O=C(N/N=C/c1cc(Br)ccc1O)/C(=C/C=C/c1ccccc1)NC(=O)c1ccccc1 [CB-50], the IC50 at 48 h ([1]; HepG2 cells) was > 20 µM, the GST inhibition [2] was “did not inhibit” and the pIC50 [3, 7] was < 5.00. The pIC50 [3, 8] was < 5.00, the pIC50 [3, 9] was < 5.00 and the Toxicity [4] was >10 µM. The “activity in ookinete formation” value ([5]; dose–response 2.5–75 µM) was “no activity”.
With COc1cccc(/C=N/NC(=O)c2cc(-c3ccccc3)nc3ccccc23)c1O [CB-58] the IC50 at 48 h ([1]; HepG2 cells) was > 20 µM, the GST inhibition [2] was “did not inhibit” and the pIC50 [3, 7] was < 5.00. The pIC50 [3, 8] was < 5.00, the pIC50 [3, 9] was < 5.00 and the Toxicity [4] was >10 µM. It also gave a pIC50 [5, 10] of 4.49.
In the case of COc1cccc(/C=N/NC(=O)c2nc(-c3ccccc3)cc(-c3ccccc3)n2)c1O [CB-41], the IC50 at 48 h ([1]; HepG2 cells) was > 20 µM, the GST inhibition [2] was “did not inhibit” and the pIC50 [3, 7] was 5.06. For the same compound, the pIC50 [3, 8] was 5.08, the pIC50 [3, 9] was 5.07 and the “antiplasmodial activity on liver stages” value ([3]; radical cure mode) was “did not show antiplasmodial activity”. For the same compound, the Toxicity [4] was >10 µM, the pIC50 ([5]; 24 hours at 19°C, luminescence) was 5.08 and the pIC50 [5, 10] was 4.78.

Source: PMC11620517, “Novel hydrazone compounds with broad-spectrum antiplasmodial activity and synergistic interactions with antimalarial drugs” (Antimicrobial Agents and Chemotherapy, 2024)
